Measurements reported in article doi:10.1101/2024.10.12.618019v1 (biorxiv, 2024).

Assays:
Experiment in all cases: biochemical
5HT2B = 5HT2B (Homo sapiens, UniProt P41595)
5HT6 = 5HT6 (Homo sapiens, UniProt P50406)
DAT = DAT (Homo sapiens, UniProt Q01959)
D4 = biological target: T1, D4 (Homo sapiens, UniProt P21917)
T1 sequence (P21917 1-419): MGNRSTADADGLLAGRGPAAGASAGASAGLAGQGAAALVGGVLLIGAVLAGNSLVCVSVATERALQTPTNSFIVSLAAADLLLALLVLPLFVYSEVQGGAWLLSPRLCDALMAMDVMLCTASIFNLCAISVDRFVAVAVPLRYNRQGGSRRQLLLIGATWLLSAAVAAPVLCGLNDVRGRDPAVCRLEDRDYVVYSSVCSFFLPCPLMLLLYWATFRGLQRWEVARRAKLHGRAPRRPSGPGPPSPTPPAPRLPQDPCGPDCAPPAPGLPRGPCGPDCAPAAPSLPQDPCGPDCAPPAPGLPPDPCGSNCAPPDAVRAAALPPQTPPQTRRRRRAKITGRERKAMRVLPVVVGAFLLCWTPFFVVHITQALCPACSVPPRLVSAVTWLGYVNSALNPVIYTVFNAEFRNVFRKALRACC

5HT1A = biological target: T2, 5HT1A (Homo sapiens, UniProt P08908)
T2 sequence (P08908 1-422): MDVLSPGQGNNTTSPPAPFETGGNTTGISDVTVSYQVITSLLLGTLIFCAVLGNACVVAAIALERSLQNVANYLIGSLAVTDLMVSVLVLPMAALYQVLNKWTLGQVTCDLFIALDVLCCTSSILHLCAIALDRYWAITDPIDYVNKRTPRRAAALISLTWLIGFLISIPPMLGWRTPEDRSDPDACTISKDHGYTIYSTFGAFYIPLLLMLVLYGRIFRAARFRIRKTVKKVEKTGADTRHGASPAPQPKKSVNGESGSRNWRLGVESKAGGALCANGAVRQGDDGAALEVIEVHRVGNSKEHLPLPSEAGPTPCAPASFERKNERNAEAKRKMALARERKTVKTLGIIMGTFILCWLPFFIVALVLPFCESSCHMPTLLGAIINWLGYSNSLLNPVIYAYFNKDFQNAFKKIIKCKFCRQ

5HT3 = biological target: T3, 5HT3 (Homo sapiens, UniProt P46098)
T3 sequence (P46098 1-478): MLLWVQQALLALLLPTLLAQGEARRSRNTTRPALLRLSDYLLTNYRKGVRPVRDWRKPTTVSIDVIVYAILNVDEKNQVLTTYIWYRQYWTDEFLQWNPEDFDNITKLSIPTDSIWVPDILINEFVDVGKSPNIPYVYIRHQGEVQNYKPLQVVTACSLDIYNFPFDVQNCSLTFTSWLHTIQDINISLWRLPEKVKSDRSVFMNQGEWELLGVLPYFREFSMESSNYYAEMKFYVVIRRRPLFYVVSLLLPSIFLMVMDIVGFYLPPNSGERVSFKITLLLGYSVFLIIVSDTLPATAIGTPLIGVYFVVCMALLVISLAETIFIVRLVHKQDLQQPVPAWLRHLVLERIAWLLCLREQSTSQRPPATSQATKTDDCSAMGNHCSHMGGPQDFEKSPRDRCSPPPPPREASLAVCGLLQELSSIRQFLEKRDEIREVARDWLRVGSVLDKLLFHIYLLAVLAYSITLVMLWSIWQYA

D1 = D1 (Homo sapiens, UniProt P21728)
D1, sequence (P21728 whole entry): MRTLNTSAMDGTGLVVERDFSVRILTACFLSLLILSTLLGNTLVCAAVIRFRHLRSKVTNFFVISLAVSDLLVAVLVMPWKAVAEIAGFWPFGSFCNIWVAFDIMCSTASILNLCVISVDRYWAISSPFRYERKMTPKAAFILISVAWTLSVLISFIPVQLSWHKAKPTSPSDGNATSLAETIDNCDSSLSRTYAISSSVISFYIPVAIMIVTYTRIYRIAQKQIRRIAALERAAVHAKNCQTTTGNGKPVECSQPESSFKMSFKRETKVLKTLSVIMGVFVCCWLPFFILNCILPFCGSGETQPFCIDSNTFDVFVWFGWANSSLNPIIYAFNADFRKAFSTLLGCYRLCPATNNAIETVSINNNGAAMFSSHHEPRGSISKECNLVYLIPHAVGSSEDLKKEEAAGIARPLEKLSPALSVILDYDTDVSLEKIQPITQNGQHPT

5HT7A = 5HT7A (Homo sapiens, UniProt P34969)
5HT7A, sequence (P34969 whole entry): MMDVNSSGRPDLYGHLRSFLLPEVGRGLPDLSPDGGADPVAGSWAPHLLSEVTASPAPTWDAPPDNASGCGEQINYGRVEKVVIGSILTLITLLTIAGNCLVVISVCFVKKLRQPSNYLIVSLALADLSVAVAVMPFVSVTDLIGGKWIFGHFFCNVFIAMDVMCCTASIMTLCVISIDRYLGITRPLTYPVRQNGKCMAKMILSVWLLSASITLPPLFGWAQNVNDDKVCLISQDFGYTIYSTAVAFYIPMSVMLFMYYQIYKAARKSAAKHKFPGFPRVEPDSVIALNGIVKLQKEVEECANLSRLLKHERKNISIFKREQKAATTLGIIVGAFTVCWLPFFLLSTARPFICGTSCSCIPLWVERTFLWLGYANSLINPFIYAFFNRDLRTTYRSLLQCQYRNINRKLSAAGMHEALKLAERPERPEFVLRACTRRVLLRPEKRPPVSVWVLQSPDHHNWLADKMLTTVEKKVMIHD

D2 = D2 (Homo sapiens, UniProt P14416)
D2, sequence (P14416 whole entry): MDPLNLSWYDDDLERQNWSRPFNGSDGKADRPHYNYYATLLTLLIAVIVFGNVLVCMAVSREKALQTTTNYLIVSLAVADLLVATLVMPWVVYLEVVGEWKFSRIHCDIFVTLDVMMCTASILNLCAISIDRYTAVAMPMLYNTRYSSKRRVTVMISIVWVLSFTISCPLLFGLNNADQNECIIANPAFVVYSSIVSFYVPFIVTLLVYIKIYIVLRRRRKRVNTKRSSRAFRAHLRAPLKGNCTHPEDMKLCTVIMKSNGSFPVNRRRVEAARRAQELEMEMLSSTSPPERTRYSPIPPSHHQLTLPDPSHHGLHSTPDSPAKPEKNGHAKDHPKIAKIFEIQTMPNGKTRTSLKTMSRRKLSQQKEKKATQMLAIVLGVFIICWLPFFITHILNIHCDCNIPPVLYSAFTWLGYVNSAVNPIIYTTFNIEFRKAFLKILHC

D3 = D3 (Homo sapiens, UniProt P35462)
H1 = H1 (Homo sapiens, UniProt P35367)
H1, sequence (P35367 whole entry): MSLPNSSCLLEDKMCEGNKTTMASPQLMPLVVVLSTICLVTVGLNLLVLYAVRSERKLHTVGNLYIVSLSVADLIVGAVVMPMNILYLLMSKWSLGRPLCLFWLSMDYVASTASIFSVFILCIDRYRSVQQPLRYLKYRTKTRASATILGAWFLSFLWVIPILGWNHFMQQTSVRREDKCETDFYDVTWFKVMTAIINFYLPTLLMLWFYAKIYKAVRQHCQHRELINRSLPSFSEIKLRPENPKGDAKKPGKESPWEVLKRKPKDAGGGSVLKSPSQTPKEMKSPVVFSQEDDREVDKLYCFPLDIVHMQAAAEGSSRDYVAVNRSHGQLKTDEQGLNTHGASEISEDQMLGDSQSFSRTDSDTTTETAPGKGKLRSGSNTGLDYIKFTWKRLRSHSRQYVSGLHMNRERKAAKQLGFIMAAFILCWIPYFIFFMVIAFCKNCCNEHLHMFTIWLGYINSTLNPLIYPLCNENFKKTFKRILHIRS

5HT5A = 5HT5A (Homo sapiens, UniProt P47898)
SERT = SERT (Homo sapiens, UniProt P31645)
H4 = H4 (Homo sapiens, UniProt Q9H3N8)
H4, sequence (Q9H3N8 whole entry): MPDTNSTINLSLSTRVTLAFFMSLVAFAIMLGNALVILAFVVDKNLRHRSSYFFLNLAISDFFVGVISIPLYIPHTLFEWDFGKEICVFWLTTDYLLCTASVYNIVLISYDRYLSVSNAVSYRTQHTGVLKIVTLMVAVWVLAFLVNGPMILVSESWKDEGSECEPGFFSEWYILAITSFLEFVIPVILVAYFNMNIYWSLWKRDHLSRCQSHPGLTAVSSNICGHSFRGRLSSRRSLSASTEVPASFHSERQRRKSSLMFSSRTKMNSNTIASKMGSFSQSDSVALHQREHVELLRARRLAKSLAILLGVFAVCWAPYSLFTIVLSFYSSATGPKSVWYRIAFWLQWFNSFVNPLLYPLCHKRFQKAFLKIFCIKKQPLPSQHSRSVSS

D5 = D5 (Homo sapiens, UniProt P21918)
D5, sequence (P21918 whole entry): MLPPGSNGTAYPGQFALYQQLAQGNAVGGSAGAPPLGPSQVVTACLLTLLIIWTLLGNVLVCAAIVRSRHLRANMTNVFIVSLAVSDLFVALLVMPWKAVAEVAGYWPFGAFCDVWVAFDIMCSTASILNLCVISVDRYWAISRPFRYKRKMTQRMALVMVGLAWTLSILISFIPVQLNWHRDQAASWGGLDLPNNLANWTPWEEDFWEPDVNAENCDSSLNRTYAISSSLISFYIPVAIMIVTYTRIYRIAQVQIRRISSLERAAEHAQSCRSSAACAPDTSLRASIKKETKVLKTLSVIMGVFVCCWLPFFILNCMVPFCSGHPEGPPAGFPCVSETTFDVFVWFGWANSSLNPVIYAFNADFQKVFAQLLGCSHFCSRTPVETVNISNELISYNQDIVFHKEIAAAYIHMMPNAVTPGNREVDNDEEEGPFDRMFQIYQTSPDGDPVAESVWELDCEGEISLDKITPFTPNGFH

5HT2C = biological target: T4, 5HT2C (Homo sapiens, UniProt P28335)
T4 sequence (P28335 1-458): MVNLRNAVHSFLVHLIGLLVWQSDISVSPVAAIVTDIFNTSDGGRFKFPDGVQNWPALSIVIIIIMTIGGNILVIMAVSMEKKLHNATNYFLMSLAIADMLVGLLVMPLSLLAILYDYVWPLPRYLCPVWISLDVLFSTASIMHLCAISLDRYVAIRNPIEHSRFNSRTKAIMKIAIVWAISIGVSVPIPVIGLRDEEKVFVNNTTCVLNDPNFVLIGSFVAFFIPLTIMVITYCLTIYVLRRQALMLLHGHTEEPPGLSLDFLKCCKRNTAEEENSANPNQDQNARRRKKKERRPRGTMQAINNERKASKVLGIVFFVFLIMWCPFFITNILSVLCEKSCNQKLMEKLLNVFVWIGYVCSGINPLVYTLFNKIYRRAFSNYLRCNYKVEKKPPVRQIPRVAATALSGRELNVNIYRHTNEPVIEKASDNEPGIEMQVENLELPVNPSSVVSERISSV

NOP = NOP (Homo sapiens, UniProt P41146)
NOP, sequence (P41146 whole entry): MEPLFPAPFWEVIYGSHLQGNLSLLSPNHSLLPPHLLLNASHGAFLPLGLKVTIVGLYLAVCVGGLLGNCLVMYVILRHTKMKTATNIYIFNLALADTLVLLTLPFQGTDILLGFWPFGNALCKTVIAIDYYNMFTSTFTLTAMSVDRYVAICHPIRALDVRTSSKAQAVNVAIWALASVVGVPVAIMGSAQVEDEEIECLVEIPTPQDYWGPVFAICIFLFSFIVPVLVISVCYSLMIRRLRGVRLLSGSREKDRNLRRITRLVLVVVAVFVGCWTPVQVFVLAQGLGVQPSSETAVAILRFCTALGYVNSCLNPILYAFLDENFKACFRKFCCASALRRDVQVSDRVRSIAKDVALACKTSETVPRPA

5HT2A = 5HT2A (Homo sapiens, UniProt P28223)
5HT2A, sequence (P28223 whole entry): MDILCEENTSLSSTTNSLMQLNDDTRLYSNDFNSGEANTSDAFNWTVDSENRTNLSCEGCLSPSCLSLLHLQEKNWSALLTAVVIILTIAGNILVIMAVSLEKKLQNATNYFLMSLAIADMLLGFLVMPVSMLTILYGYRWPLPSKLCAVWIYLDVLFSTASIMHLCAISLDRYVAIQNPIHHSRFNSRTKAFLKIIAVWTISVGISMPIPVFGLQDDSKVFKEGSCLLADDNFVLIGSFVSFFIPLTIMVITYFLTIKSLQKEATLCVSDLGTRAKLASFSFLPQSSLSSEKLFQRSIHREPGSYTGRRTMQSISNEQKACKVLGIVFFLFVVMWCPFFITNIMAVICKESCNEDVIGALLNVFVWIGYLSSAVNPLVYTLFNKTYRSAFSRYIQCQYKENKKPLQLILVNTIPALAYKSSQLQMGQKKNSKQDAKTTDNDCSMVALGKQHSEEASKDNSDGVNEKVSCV

5HT1E = 5HT1E (Homo sapiens, UniProt P28566)
5HT1E, sequence (P28566 whole entry): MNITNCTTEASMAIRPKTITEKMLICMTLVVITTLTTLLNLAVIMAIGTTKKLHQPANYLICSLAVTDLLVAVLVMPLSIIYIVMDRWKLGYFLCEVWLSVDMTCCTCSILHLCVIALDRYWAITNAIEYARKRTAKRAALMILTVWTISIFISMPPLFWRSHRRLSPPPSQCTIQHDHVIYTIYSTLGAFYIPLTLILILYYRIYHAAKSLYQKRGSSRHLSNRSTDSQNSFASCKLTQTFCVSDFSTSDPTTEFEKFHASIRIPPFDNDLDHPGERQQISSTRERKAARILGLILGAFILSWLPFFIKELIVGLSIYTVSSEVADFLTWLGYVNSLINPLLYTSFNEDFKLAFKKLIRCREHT

MOR = MOR (Homo sapiens, UniProt P35372)
MOR, sequence (P35372 whole entry): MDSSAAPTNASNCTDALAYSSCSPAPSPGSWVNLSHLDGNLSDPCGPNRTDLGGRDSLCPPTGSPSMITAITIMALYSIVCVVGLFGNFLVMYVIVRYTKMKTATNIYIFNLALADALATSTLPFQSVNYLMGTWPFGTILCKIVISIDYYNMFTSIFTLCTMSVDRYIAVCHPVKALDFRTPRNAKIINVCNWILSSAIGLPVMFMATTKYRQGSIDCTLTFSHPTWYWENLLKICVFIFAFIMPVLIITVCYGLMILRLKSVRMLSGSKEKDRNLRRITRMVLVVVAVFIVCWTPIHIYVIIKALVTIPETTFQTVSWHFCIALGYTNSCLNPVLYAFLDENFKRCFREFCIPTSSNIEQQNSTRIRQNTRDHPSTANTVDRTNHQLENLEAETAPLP

DOR = DOR (Homo sapiens, UniProt P41143)
5HT1D = 5HT1D (Homo sapiens, UniProt P28221)
5HT1B = 5HT1B (Homo sapiens, UniProt P28222)

DAT, sequence (Q01959 whole entry): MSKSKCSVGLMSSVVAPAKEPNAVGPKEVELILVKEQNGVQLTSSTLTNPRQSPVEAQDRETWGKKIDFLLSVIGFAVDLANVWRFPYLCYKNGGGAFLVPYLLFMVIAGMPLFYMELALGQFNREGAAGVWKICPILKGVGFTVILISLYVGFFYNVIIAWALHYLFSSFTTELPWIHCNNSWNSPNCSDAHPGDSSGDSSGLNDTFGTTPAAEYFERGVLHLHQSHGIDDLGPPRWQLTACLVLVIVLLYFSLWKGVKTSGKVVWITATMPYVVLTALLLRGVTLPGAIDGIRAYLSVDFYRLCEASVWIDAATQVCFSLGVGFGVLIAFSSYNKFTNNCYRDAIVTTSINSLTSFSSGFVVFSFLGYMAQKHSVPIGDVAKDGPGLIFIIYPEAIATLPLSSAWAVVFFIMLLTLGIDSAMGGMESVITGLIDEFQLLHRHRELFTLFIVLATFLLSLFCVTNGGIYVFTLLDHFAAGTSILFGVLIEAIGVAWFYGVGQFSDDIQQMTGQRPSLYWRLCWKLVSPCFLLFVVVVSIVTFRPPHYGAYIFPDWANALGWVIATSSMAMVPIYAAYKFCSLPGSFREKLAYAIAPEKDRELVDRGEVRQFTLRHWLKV

| Structure (SMILES) | Ki (5HT2B) [nM] | Ki (5HT6) [nM] | Ki (DAT) [nM] | Ki (D4) [nM] | Ki (5HT1A) [nM] | Ki (5HT3) [nM] | Ki (D1) [nM] | Ki (5HT7A) [nM] | Ki (D2) [nM] | Ki (D3) [nM] | Ki (H1) [nM] | Ki (5HT5A) [nM] | Ki (SERT) [nM] | Ki (H4) [nM] | Ki (D5) [nM] | Ki (5HT2C) [nM] | Ki (NOP) [nM] | Ki (5HT2A) [nM] | Ki (5HT1E) [nM] | Ki (MOR) [nM] | further results |
| --- | --- | --- | --- | --- | --- | --- | --- | --- | --- | --- | --- | --- | --- | --- | --- | --- | --- | --- | --- | --- | --- |
| Cc1cc(-c2cc(F)c(CNC3Cc4ccccc4C3)c(F)c2)cc(-c2ncn[nH]2)c1 [4A] | 484 | > 10000 | 497 | 1770 | > 10000 | > 10000 | 1870 | > 10000 | > 10000 | > 10000 | > 10000 | > 10000 | 334 | > 10000 | > 10000 | > 10000 | > 10000 | > 10000 |  |  |  |
| Cc1cc(-c2ccc(CNC3Cc4ccccc4C3)cc2)cc(-c2nc[nH]n2)c1 [6A] | 826 | > 10000 | 287 | 1770 | > 10000 | > 10000 | 716 | 747 | > 10000 | > 10000 | 1450 | 3940 | 130 | > 10000 | > 10000 | 470 | 167 | 1000 | > 10000 | 4.2 | Ki (DOR): 98 nM; Ki (5HT1D): 1320 nM |
| Cc1cc(C(N)=O)cc(-c2cc(F)c(CNC3Cc4ccccc4C3)c(F)c2)c1 [1A] | > 10000 | > 10000 | 533 | 594 | > 10000 | > 10000 | 998 | > 10000 | 6530 | 466 | > 10000 | > 10000 | 523 | > 10000 | > 10000 | > 10000 | > 10000 | > 10000 | > 10000 | 8.3 |  |
| Cc1cc(C(N)=O)cc(-c2ccc(CNC3Cc4ccccc4C3)c(F)c2)c1 [2A] | > 10000 | > 10000 |  | 748 | > 10000 | > 10000 | 1270 | 891 | > 10000 | 748 | > 10000 | > 10000 | 174 | > 10000 | > 10000 | > 10000 | > 10000 | > 10000 | > 10000 | 9.2 | Ki (DOR): 350 nM; Ki (5HT1D): 1660 nM |
| Cc1cc(C(N)=O)cc(-c2ccc(CNC3Cc4ccccc4C3)cc2)c1 [3A] | > 10000 | > 10000 | 850 | 27.2 | > 10000 | > 10000 | 1320 | 977 | > 10000 | > 10000 | > 10000 | > 10000 | 310 | > 10000 | > 10000 | 2270 | > 10000 | > 10000 |  | 7.8 | Ki (5HT1D): > 10000 nM |
| Cc1cc(-c2ccc(CNC3Cc4ccccc4C3)c(F)c2)cc(-c2ncn[nH]2)c1 [5A] | 948 | > 10000 | 303 | 5500 | > 10000 | > 10000 | 1270 | 707 | > 10000 | 181 | 6180 | 8040 | 116 | > 10000 | > 10000 | > 10000 | 560 | 1020 | > 10000 |  | Ki (5HT1B): 3480 nM; Ki (5HT1D): 1420 nM |
